# According to patent US12304932B2, “PACAP stabilized peptide” (SENJU PHARMACEUTICAL CO., LTD., priority 2017, dated 2025):
# Square brackets hold non-standard residues; d marks the D form. Peptide text beside a SMILES is read from it. Ala(1H-tetrazol-5-yl) = N[C@@H](Cc1nnn[nH]1)C(=O)O
# How the values were obtained:
# [1] = Peptide stability test 5: Tris buffer pH 7.0, stored at 60° C., HPLC conditions 3; assay type: physicochemical; conditions: 100 μM peptide, Tris buffer pH 7.0, 60° C.
# Method: Peptide 26 synthesized in Example 2 was weighed and dissolved in Tris buffer (pH 7.0) to prepare 1.0 mM peptide solutions. Each solution was filtered with a Chromatdisk (product of Merck Millipore, Millex-GV, 0.22 μm). The filtrate was diluted to 100 μM with Tris buffer (pH 7.0) and dispensed into a tube (Protein LoBind Tube by Eppendorf Co.). The prepared peptide solutions were incubated for one week or 2 weeks in a 60° C. thermostatic bath to obtain stored samples. A simultaneously prepared sample among the peptide solutions that was not stored was used as a standard sample (initial sample). The standard sample and the stored samples were stored at −30° C. until sample analysis.
# The stored sample was measured under the following HPLC analysis conditions 3, and the survival rate alter correction for water for the peptide among the stored samples was calculated in the same manner as Example 3.
# Column: XSelect CSH C18 by Waters Co., 5 μm, 4.6×250 mm
# Guard column: XSelect CSH C18 by Waters Co., 5 4.6×20 mm Guard Cartridge
# Detection wavelength: 220 nm
# Mobile phase A: 0.1% formic acid in water
# Mobile phase B: 0.1% formic acid in acetonitrile
# Measuring time: 20 minutes
# Measuring sample injection volume: 50 μL
# Column temperature: 40° C.
# Mobile phase delivery: The mixing ratio of mobile phase A and mobile phase B was varied as shown in Table 9 for linear concentration gradient control.
# [2] = biological target: T1, PAC1 receptor (PAC1R) (Homo sapiens, UniProt P41586); conditions: background statement; cited from earlier work
# T1 sequence (P41586 21-468): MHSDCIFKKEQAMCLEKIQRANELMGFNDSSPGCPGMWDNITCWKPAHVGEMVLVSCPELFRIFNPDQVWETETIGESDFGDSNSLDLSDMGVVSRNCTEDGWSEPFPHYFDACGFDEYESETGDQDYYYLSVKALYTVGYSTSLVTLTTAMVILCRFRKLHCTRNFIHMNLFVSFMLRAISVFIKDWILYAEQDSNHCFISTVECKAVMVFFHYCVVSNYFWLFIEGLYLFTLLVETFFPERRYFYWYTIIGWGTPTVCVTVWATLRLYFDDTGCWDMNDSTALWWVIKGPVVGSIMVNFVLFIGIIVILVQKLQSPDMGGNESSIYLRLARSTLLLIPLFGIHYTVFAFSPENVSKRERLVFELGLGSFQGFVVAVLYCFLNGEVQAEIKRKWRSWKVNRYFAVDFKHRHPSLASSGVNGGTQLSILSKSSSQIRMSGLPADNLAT
compound,measurement,setting,value
CC[C@H](C)[C@H](NC(=O)CNC(=O)[C@H](Cc1nnn[nH]1)NC(=O)[C@H](CO)NC(=O)[C@H](Cc1c[nH]cn1)NC(C)=O)C(=O)N[C@@H](Cc1ccccc1)C(=O)N[C@H](C(=O)N[C@@H](Cc1nnn[nH]1)C(=O)N[C@@H](C)C(=O)N[C@@H](Cc1ccc(O)cc1)C(=O)N[C@@H](CO)C(=O)N[C@@H](CCCNC(=N)N)C(=O)N[C@@H](Cc1ccc(O)cc1)C(=O)N[C@@H](CCCNC(=N)N)C(=O)N[C@@H](CCCCN)C(=O)N[C@@H](C)C(=O)N[C@@H](CC(C)C)C(=O)N[C@@H](C)C(=O)N[C@H](C(=O)N[C@@H](CCCCN)C(=O)N[C@@H](CCCCN)C(=O)N[C@@H](Cc1ccc(O)cc1)C(=O)N[C@@H](CC(C)C)C(=O)N[C@@H](C)C(=O)N[C@@H](C)C(=O)N[C@H](C(=O)N[C@@H](CC(C)C)C(N)=O)C(C)C)C(C)C)[C@@H](C)O [Peptide 26] (Ac-HS[Ala(1H-tetrazol-5-yl)]GIFT[Ala(1H-tetrazol-5-yl)]AYSRYRKALAVKKYLAAVL-NH2),"survival rate after correction for water, 60° C., 1-week storage",[1]; 1 week,98.0%
same,"survival rate after correction for water, 60° C., 2-week storage",[1]; 2 weeks,94.8%
Pituitary adenylate cyclase-activating polypeptide [PACAP],affinity of PAC1R for PACAP relative to its affinity for VIP,[2],more than 1000 times
